Assay results from patent US9546157B2, “Asymmetric piperidinyl-substituted ureas as medicines” (Helsinn Healthcare SA, priority 2014, dated 2017).
“Also recorded” adds a separate entry of the source.

Legend:
[1] = tested on: Marchigian Sardinian alcohol-preferring (msP) rats; assay: Operant ethanol self-administration in msP rats; type: in vivo, rat; settings: for operant responding for alcohol (10% ethanol self-administration), overall: oral 1 h before 30-min session, all doses tested (H0847 1, 3; H0816 3, 10; H0900 and H0860 3, 30 mg/kg)
Description: Training continued until stable baseline of alcohol responding was achieved. At this point, before initiation of treatments, rats were trained to gavage administration procedures for three consecutive days (pre-treatment phase) during which they received drug vehicle. At this point animals were tested for the effect of ghrelin antagonists on 10% (v/v) ethanol self-administration. Using a within-subject Latin square design, the first group of msP rats (N=12) was tested for the effect of H0847 (0.0, 1.0 and 3.0 mg/kg), while the second (N=12) was treated with H0816 (0.0, 3.0 and 10.0 mg/kg).
Once the experiment was finished, animals were left in their home cages for several days, in order to wash out the drugs. Then, the same rats were employed to test the remaining ghrelin antagonists compounds H0900 (0.0, 3.0 and 30.0 mg/kg) and H0860 (0.0, 3.0 and 30.0 mg/kg). Once a stable self-administration baseline was reached, treatments begun according to the same experimental procedures described for the previous drugs tested.
All the drugs (or vehicles) were administered orally 1 hour before the beginning of the operant session.
Male genetically selected alcohol-preferring Marchigian Sardinian (msP) rats were used (N=24). At the time of the experiments their body weight ranged between 350 and 400 g. They were housed 4 per cages in a room with a reverse 12:12 h light/dark cycle (lights off at 9:30 a.m.), temperature of 20-22° C. and humidity of 45-55%. Rats were offered free access to tap water and food pellets (4RF18, Mucedola, Settimo Milanese, Italy). All the procedures were conducted in adherence with the European Community Council Directive for Care and Use of Laboratory Animals and the National Institutes of Health Guide for the Care and Use of Laboratory Animals.
75 mg of each H0900 and H0860 were accurately weighed and suspended in 10 ml of 0.5% carboxymethyl cellulose sodium salt solution (CMC, Sigma-Aldrich Cat. C4888, lot 120M0216V). The lower dose solution was prepared by dilution of 30 mg/ml suspension with 0.5% CMC solution.
37.5 mg of H0816 were accurately weighed and suspended in 15 ml of 0.5% carboxymethyl cellulose sodium salt solution (CMC, Sigma-Aldrich Cat. C4888, lot 120M0216V). The lower dose solution was prepared by dilution of mg/ml suspension with 0.5% CMC solution.
11.25 mg of H0847 were accurately weighed and suspended in 15 ml of 0.5% carboxymethyl cellulose sodium salt solution (CMC, Sigma-Aldrich Cat. C4888, lot 120M0216V). The lower dose solution was prepared by dilution of mg/ml suspension with 0.5% CMC solution.
Suspensions were prepared freshly on test day. Vehicle was composed of a solution of 0.5% carboxymethyl cellulose sodium salt and was prepared by dissolving 1 g of CMC in 200 ml of distilled water. Vehicle and drugs were administered by gavage in a volume of 4 ml/kg of body weight 1 hour before the access to 10% alcohol solution. 10% (v/v) ethanol solution was prepared every two days by diluting 95% (v/v) ethanol solution (F.L. CARSETTI s.n.c-CAMERINO) in drinkable water.
The self-administration stations consisted of operant conditioning chambers (Med Associate, Inc) enclosed in sound-attenuating, ventilated environmental cubicles. Each chamber was equipped with a drinking reservoir (volume capacity: […]) positioned 4 cm above the grid floor in the centre of the front panel of the chamber, two retractable levers located 3 cm (one to the right and the other to the left) of the drinking receptacle and a white cue light located 6 cm above the lever. […] An IBM-compatible computer controlled the delivery of fluids (activation of syringe pump), presentation of visual stimuli and recording of the behavioral data.
Using operant self-administration chambers (Med Associates), msP rats were trained to lever press for 10% alcohol (v/v) until stable baseline of responding were achieved. 16 self-administration training sessions were carried out to train the animals. […]

GHSR1a = target: T1, GHSR1a (Homo sapiens, UniProt Q92847); assay: Calcium FLIPR assay, GHSR-1a agonism; type: cell-based; settings: HEK293/GHSR1a cells
T1 construct: expressed in transfected cells; host or cells: HEK293
Outline: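 HEK293 cells expressing GHSR1a, seeded 24 hr earlier and loaded with calcium dye for 30-60 min at room temperature or 37° C, were read by FLIPR fluorescence. Agonism: compound added at t=20 sec, calcium followed 2 minutes. Antagonism: compound plus ghrelin (10 nM) at t=20 sec; potency from reduction of ghrelin response.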

[2] = 3 mg/kg oral 1 h before session
[3] = 30 mg/kg oral 1 h before session

T1 sequence (Q92847 whole entry): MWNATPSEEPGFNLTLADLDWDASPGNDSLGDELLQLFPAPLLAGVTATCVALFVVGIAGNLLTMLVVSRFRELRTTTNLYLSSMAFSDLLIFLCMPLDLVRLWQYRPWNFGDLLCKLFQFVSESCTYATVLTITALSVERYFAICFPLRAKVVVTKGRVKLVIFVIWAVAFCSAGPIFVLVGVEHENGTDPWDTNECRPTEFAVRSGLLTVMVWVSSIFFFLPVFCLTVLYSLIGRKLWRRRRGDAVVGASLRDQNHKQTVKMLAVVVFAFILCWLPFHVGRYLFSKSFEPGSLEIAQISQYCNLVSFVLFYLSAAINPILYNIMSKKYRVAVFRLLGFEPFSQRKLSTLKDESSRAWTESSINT

SMILES | operant responding for alcohol (10% ethanol self-administration), overall [1] | EC50 (GHSR1a) [µM] | alcohol self-administration, post hoc [1, 2] | alcohol self-administration, post hoc [1, 3]
C[C@H](NC(=O)N(C)C1CCN(C)CC1)c1ccc(-c2cnccn2)c(Cl)c1Cl [Compound H0816, (S)-3-(1-(2,3-dichloro-4-(pyrazin-2-yl)phenyl)ethyl)-1-methyl-1-(1-methylpiperidin-4-yl)urea] | had no effect on operant responding for alcohol; also recorded: had no effect on ethanol responses | > 30 | – | –
C[C@H](NC(=O)N(C)C1CCN(C)CC1)c1ccc(-c2cncc(F)n2)c(Cl)c1Cl [Compound H0847, (S)-3-(1-(2,3-dichloro-4-(6-fluoropyrazin-2-yl)phenyl)ethyl)-1-methyl-1-(1-methylpiperidin-4-yl)urea] | had no effect on operant responding for alcohol; also recorded: had no effect on ethanol responses | > 30 | – | –
CC[C@H](NC(=O)N(C)C1CCN(C)CC1)c1ccc(-c2cnccn2)c(Cl)c1Cl [Compound H0860, (S)-3-(1-(2,3-dichloro-4-(pyrazin-2-yl)phenyl)propyl)-1-methyl-1-(1-methylpiperidin-4-yl)urea] | significantly reduced operant responding for alcohol; also recorded: statistically significant decrease in ethanol self-administration | > 30 | only the higher dose (30 mg/kg) reduced ethanol self-administration | significant reduction of alcohol self-administration
CN1CCC(N(C)C(=O)N[C@H](c2ccc(-c3cnccn3)c(Cl)c2Cl)C(F)(F)F)CC1 [Compound H0900, (R)-3-(1-(2,3-dichloro-4-(pyrazin-2-yl)phenyl)-2,2,2-trifluoroethyl)-1-methyl-1-(1-methylpiperidin-4-yl)urea] | significantly reduced operant responding for alcohol; also recorded: statistically significant decrease in ethanol self-administration | > 30 | significant reduction of alcohol self-administration | significant reduction of alcohol self-administration
